Patent US10517889B2, “Modulators of SMAD7 expression” (Ionis Pharmaceuticals, Inc., priority 2017, dated 2019)
Strand notation (5' to 3'): a small letter for the sugar, then the base; units joined by * are phosphorothioate-linked, units joined directly phosphodiester-linked; [ ] holds rarer units or linkages, { } end groups; capitals alone tell only the bases. e = 2'-O-(2-methoxyethyl) (MOE); [5mC] = 5-methylcytosine; d = 2'-deoxy (DNA)

Tested on: human SMAD7 mRNA
Assay: Antisense inhibition of human SMAD7 mRNA expression in Hep3B cells by 5-10-5 MOE gapmers, single concentration, electroporation, RT-PCR (Example 1, Study 1 and 2)
Format: cell-based
Conditions: Study 2, electroporation with 15,000 nM antisense oligonucleotide, 5-10-5 MOE gapmers targeting SEQ ID NO: 1 and 2
Outline: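 Hep3B cells (20,000/well) electroporated with 5-10-5 MOE gapmer at 5,000 nM or 15,000 nM for approximately 24 h. SMAD7 mRNA quantified by real-time PCR with primer probe set RTS5062 and normalized to RIBOGREEN total RNA. Values are percent inhibition relative to untreated controls.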

Substance	% Inhibition	% inhibition of SMAD7 mRNA expression
771951 (antisense e[5mC]*eT*eG*e[5mC]*eA*dG*dA*dG*d[5mC]*dA*d[5mC]*dA*dG*dA*dT*eG*e[5mC]*eA*eA*eA) [compound 771951]	9%	–
771424 (e[5mC]*e[5mC]*e[5mC]*eA*eG*dG*d[5mC]*dA*dG*d[5mC]*dA*dT*d[5mC]*d[5mC]*dA*eG*e[5mC]*e[5mC]*e[5mC]*eT; antisense) [compound 771424]	36%	–
771766 (antisense e[5mC]*eT*eG*eA*eA*dG*d[5mC]*d[5mC]*d[5mC]*d[5mC]*d[5mC]*d[5mC]*dA*dA*dG*e[5mC]*e[5mC]*eA*eG*eG) [compound 771766]	5%	–
771655 (antisense eA*eG*eT*e[5mC]*eT*dA*dA*dA*d[5mC]*dA*dT*dG*d[5mC]*dT*d[5mC]*eA*eT*eT*eG*eA) [compound 771655]	–	14%
771759 (antisense eG*e[5mC]*eA*eT*eT*dA*d[5mC]*d[5mC]*dA*dG*dT*d[5mC]*d[5mC]*d[5mC]*d[5mC]*e[5mC]*eA*eT*eT*eA) [compound 771759]	26%	–
771791 (antisense eG*eA*eG*eG*eA*dG*dG*dG*dA*dG*dA*dA*dA*d[5mC]*dT*e[5mC]*e[5mC]*eT*e[5mC]*eA) [compound 771791]	22%	–
771747 (antisense eG*eT*eG*eT*eG*dT*dT*dT*d[5mC]*dA*dA*dA*dG*dG*dA*eA*eA*eA*eG*e[5mC]) [compound 771747]	10%	–
771847 (antisense e[5mC]*eA*eT*e[5mC]*eA*d[5mC]*d[5mC]*dT*dT*d[5mC]*dG*dG*dA*d[5mC]*dA*eA*eG*e[5mC]*e[5mC]*eA) [compound 771847]	53%	–
771935 (antisense eG*eG*eA*eA*eG*dG*dA*d[5mC]*dA*d[5mC]*dA*dT*dT*dG*dG*e[5mC]*eA*eT*e[5mC]*eA) [compound 771935]	23%	–
771351 (antisense e[5mC]*eT*e[5mC]*eT*e[5mC]*dT*dT*dT*dG*d[5mC]*d[5mC]*d[5mC]*d[5mC]*dA*dA*eA*eA*e[5mC]*eT*e[5mC]) [compound 771351]	11%	–
771726 (antisense eA*eG*e[5mC]*e[5mC]*eA*dA*dA*dA*d[5mC]*d[5mC]*d[5mC]*dA*dG*dT*d[5mC]*eA*eA*eG*eT*eT) [compound 771726]	19%	–
771604 (antisense e[5mC]*e[5mC]*eT*eT*eG*dG*dG*dA*dA*dG*d[5mC]*d[5mC]*d[5mC]*dA*dT*e[5mC]*eT*e[5mC]*eA*eG) [compound 771604]	–	12%
771835 (antisense eA*eG*eT*eA*eA*dA*dA*dT*dG*dG*dG*dA*dA*dA*dT*eA*eA*eG*eG*e[5mC]) [compound 771835]	5%	–
771894 (antisense e[5mC]*eA*eA*eA*eA*dG*dG*dG*dA*dA*dA*dG*dG*dA*dG*eG*eT*eT*eT*eG) [compound 771894]	17%	–
771950 (antisense eA*eT*eG*e[5mC]*eA*dA*dA*dG*dG*dG*dA*d[5mC]*d[5mC]*d[5mC]*dT*eT*eA*eA*eT*eA) [compound 771950]	0%	–
771408 (antisense eT*eG*e[5mC]*eT*eA*dA*dG*dG*dA*dG*d[5mC]*dG*dA*dA*d[5mC]*eA*eT*eG*eA*e[5mC]) [compound 771408]	36%	–

Same assay, conditions: electroporation with 15,000 nM antisense oligonucleotide (Study 2), 5-10-5 MOE gapmers targeting SEQ ID NO: 1 and 2

Substance	% inhibition of SMAD7 mRNA expression	% Inhibition of SMAD7 mRNA
771642 (antisense eA*eG*eA*eA*eG*dA*dG*dT*dT*dA*dG*dG*dT*dG*dT*e[5mC]*eA*eG*e[5mC]*e[5mC]) [compound 771642]	36%	–
771664 (antisense eT*eA*eA*eA*eT*dT*dT*d[5mC]*d[5mC]*dA*dA*dT*dG*dA*dG*eA*eA*eT*eG*e[5mC]) [compound 771664]	5%	25%
771425 (e[5mC]*e[5mC]*eT*eT*eG*d[5mC]*d[5mC]*d[5mC]*dA*dG*dG*d[5mC]*dA*dG*d[5mC]*eA*eT*e[5mC]*e[5mC]*eA; antisense) [compound 771425]	–	15%
771824 (antisense eT*eT*e[5mC]*eT*eA*d[5mC]*dT*dA*dG*dA*dA*dA*dA*dA*dA*eA*eT*eT*eA*eG) [compound 771824]	–	3%
771473 (antisense eA*eG*e[5mC]*e[5mC]*eG*dA*dT*dT*dT*dT*dG*d[5mC]*dT*d[5mC]*d[5mC]*eG*e[5mC]*eA*e[5mC]*e[5mC]) [compound 771473]	–	37%
771784 (antisense eT*eA*eA*eA*eT*d[5mC]*dA*dA*dG*dA*dG*d[5mC]*dT*dG*dA*eA*eA*eT*eT*e[5mC]) [compound 771784]	–	1%
771928 (antisense e[5mC]*e[5mC]*e[5mC]*e[5mC]*eA*dT*dT*dG*d[5mC]*d[5mC]*dA*d[5mC]*dT*dA*d[5mC]*eA*eG*eA*eG*eA) [compound 771928]	–	27%

Same assay, conditions: electroporation, 5,000 nM, approximately 24 hours, relative to untreated control cells, gapmers targeting SEQ ID NO: 1 and 2

Substance	% inhibition of SMAD7 mRNA expression
771747 (antisense eG*eT*eG*eT*eG*dT*dT*dT*d[5mC]*dA*dA*dA*dG*dG*dA*eA*eA*eA*eG*e[5mC]) [compound 771747]	2%
771835 (antisense eA*eG*eT*eA*eA*dA*dA*dT*dG*dG*dG*dA*dA*dA*dT*eA*eA*eG*eG*e[5mC]) [compound 771835]	17%

Same assay, conditions: electroporation, 15,000 nM antisense oligonucleotide (Study 2), 5-10-5 MOE gapmers targeting SEQ ID NO: 1 and 2

Substance	% inhibition of SMAD7 mRNA expression
771586 (antisense e[5mC]*e[5mC]*eT*eT*eG*dA*dT*dG*dA*dG*dG*dG*dA*dG*dA*eG*eG*eA*eG*eG) [compound 771586]	48%
771874 (antisense eA*eT*eT*eA*e[5mC]*dT*dT*d[5mC]*dT*dG*dT*d[5mC]*dT*dG*d[5mC]*e[5mC]*eT*e[5mC]*e[5mC]*eG) [compound 771874]	34%
483664 (antisense eT*eG*e[5mC]*eT*e[5mC]*dA*dG*d[5mC]*dT*d[5mC]*dA*d[5mC]*dG*d[5mC]*dT*e[5mC]*eT*eG*eT*e[5mC]) [compound 483664]	36%
771593 (antisense e[5mC]*eG*e[5mC]*eT*eG*d[5mC]*dT*d[5mC]*dA*dG*dA*dA*dG*d[5mC]*d[5mC]*eT*eG*eT*eG*eG) [compound 771593]	41%
771425 (e[5mC]*e[5mC]*eT*eT*eG*d[5mC]*d[5mC]*d[5mC]*dA*dG*dG*d[5mC]*dA*dG*d[5mC]*eA*eT*e[5mC]*e[5mC]*eA; antisense) [compound 771425]	1%
771818 (antisense eT*eG*eA*eA*eG*dA*d[5mC]*dA*dA*d[5mC]*dT*dG*d[5mC]*dT*dT*eT*eG*eA*eG*eA) [compound 771818]	38%
771482 (antisense e[5mC]*e[5mC]*eG*e[5mC]*eT*dG*d[5mC]*dA*dG*dG*d[5mC]*dT*dG*dT*dA*e[5mC]*eG*e[5mC]*e[5mC]*eT) [compound 771482]	38%
771450 (antisense e[5mC]*eT*eA*eG*eT*dT*d[5mC]*dG*d[5mC]*dA*dG*dA*dG*dT*d[5mC]*eG*eG*e[5mC]*eT*eA) [compound 771450]	45%
771698 (antisense e[5mC]*eA*e[5mC]*eA*e[5mC]*dT*d[5mC]*dT*d[5mC]*d[5mC]*d[5mC]*dA*dG*dG*dA*eG*eG*eG*eT*eA) [compound 771698]	43%
771824 (antisense eT*eT*e[5mC]*eT*eA*d[5mC]*dT*dA*dG*dA*dA*dA*dA*dA*dA*eA*eT*eT*eA*eG) [compound 771824]	0%
771473 (antisense eA*eG*e[5mC]*e[5mC]*eG*dA*dT*dT*dT*dT*dG*d[5mC]*dT*d[5mC]*d[5mC]*eG*e[5mC]*eA*e[5mC]*e[5mC]) [compound 771473]	9%
771443 (eG*e[5mC]*e[5mC]*eT*e[5mC]*dT*dT*dG*dA*d[5mC]*dT*dT*d[5mC]*d[5mC]*dG*eA*eG*eG*eA*eA; antisense) [compound 771443]	30%
771784 (antisense eT*eA*eA*eA*eT*d[5mC]*dA*dA*dG*dA*dG*d[5mC]*dT*dG*dA*eA*eA*eT*eT*e[5mC]) [compound 771784]	0%
771569 (antisense eG*eG*eA*e[5mC]*eT*dG*d[5mC]*dA*dA*dA*d[5mC]*d[5mC]*dT*d[5mC]*dT*e[5mC]*eT*eG*e[5mC]*eT) [compound 771569]	30%
771928 (antisense e[5mC]*e[5mC]*e[5mC]*e[5mC]*eA*dT*dT*dG*d[5mC]*d[5mC]*dA*d[5mC]*dT*dA*d[5mC]*eA*eG*eA*eG*eA) [compound 771928]	0%
771873 (antisense eA*eG*e[5mC]*eT*eG*d[5mC]*dT*dG*dT*d[5mC]*dA*d[5mC]*dA*dA*dG*eG*e[5mC]*e[5mC]*e[5mC]*eT) [compound 771873]	31%

Same assay, conditions: electroporation, 15,000 nM, approximately 24 hours, gapmers targeting SEQ ID NO: 3 and 4

Substance	% inhibition of SMAD7 mRNA expression
771356 (antisense eT*e[5mC]*e[5mC]*eA*eG*dT*dT*d[5mC]*dG*dG*d[5mC]*d[5mC]*dT*dT*d[5mC]*e[5mC]*eA*eT*e[5mC]*e[5mC]) [compound 771356]	40%

Same assay, conditions: electroporation, 15,000 nM, approximately 24 hours, relative to untreated control cells, gapmers targeting SEQ ID NO: 1 and 2

Substance	% inhibition of SMAD7 mRNA expression
771629 (antisense eA*eG*e[5mC]*eA*eT*dG*dT*d[5mC]*d[5mC]*d[5mC]*dT*d[5mC]*d[5mC]*d[5mC]*dA*eG*eG*eG*eA*e[5mC]) [compound 771629]	25%
771749 (antisense eG*eA*eA*eA*eT*dG*dG*dA*dG*dT*dT*dA*d[5mC]*dT*dT*eG*eT*eT*eA*eA) [compound 771749]	29%
771533 (antisense e[5mC]*eA*eA*eA*e[5mC]*dG*dA*dG*dG*dA*d[5mC]*dG*dA*dG*dA*eA*eG*eA*eA*eG) [compound 771533]	2%
771757 (antisense eT*e[5mC]*e[5mC]*e[5mC]*e[5mC]*dT*dT*dT*dT*dT*dT*dA*dA*dT*dT*eG*eA*eG*eG*eA) [compound 771757]	48%
771517 (antisense e[5mC]*eT*e[5mC]*eA*eG*dG*dA*dG*dG*dA*dA*dA*dA*dT*dA*eT*eT*eA*eG*e[5mC]) [compound 771517]	25%
771949 (antisense eA*eG*eA*eT*e[5mC]*dT*dT*dT*d[5mC]*dA*dA*d[5mC]*dT*dG*dG*eA*eT*eG*eG*eA) [compound 771949]	26%
771789 (antisense e[5mC]*e[5mC]*e[5mC]*eA*eA*dA*dA*d[5mC]*dA*dG*dT*dG*dT*dA*d[5mC]*e[5mC]*e[5mC]*eT*e[5mC]*e[5mC]) [compound 771789]	30%
771392 (antisense e[5mC]*eT*e[5mC]*e[5mC]*eG*dG*d[5mC]*dT*dG*d[5mC]*d[5mC]*d[5mC]*d[5mC]*dA*d[5mC]*e[5mC]*e[5mC]*e[5mC]*eG*e[5mC]) [compound 771392]	28%
